Consider 1 molecule from article PMC6732734 (Heliyon, 2019).

Structures are written as SMILES.

The nature of this data set: In vivo gentamicin release / pharmacokinetics after tail vein injection. Set-up: species or system Wistar rats. Conditions: rat.

Consider `CNC(C)C1CCC(N)C(OC2C(N)CC(N)C(OC3OCC(C)(O)C(NC)C3O)C2O)O1` (stereo not drawn) [Pure drug, Gentamicin], for which, where the note is “male, Wistar, plasma, iv, 2 mg”, the AUC(0-inf) (usually total exposure, with the tail of the curve extrapolated) turned out to be 203 µg·h/mL; the concentration peaked (Cmax) at 8400 ng/mL; the Tmax (in general, the time from dosing to the highest level) turned out to be 1 h; the Vd (commonly the apparent volume that relates the amount in the body to the concentration in plasma or blood) is 0.1 L/kg. The clearance – broadly, the volume of plasma or blood freed of the substance per unit of time – (male, Wistar, plasma, iv, 2 mg) was 5 mL/h/kg. The “time up to which gentamicin was detectable in the plasma” value (intravenous) was “up to 6 h”.
